Like-named read-outs stand apart in the source and are kept apart here.
Test system: Mycosphaerella graminicola; Anamorph: Septoria tritici; Bayer Code SEPTTR
Experiment: Leaf blotch of wheat, foliar fungicide treatment, one day protectant (1DP) or three day curative (3DC)
Type: in vivo, Septoria tritici on wheat plants (variety Yuma)
Conditions: Zymoseptoria tritici, rating of percent disease control
[1] = 24 h, one day protectant (1DP), read-out: SETTTR 1DP 25 ppm
[2] = 24 h, one day protectant (1DP), read-out: SEPTTR 1DP 100 ppm
[3] = 72 h, three day curative (3DC), read-out: SEPTTR 3DC 25 ppm
[4] = 72 h, three day curative (3DC), read-out: SEPTTR 3DC 100 ppm

| SMILES | pest or weed control at 25 ppm [1] [%] | pest or weed control at 100 ppm [2] [%] | pest or weed control at 25 ppm [3] [%] | pest or weed control at 100 ppm [4] [%] |
| --- | --- | --- | --- | --- |
| CNC(=S)Nc1nc(OCc2ccc(C)cc2)ncc1F [Compound 182] | 76 to 100 | 76 to 100 | 76 to 100 | 76 to 100 |
| N#Cc1cccc(COc2ncc(F)c(NC(=O)NCc3ccccc3)n2)c1 [Compound 183] | 0 to 25 | 0 to 25 | 0 to 25 | 0 to 25 |
| Nc1nc(OCc2ccc(C(F)(F)F)nc2)ncc1F [Compound 184] | 76 to 100 | 76 to 100 | 51 to 75 | 76 to 100 |
| COc1cc(F)c(COc2ncc(F)c(N)n2)cn1 [Compound 185] | 76 to 100 | 76 to 100 | 76 to 100 | 76 to 100 |
| CCCNC(=O)Nc1nc(OCc2ccc(F)cc2)ncc1F [Compound 186] | 51 to 75 | 51 to 75 | 0 to 25 | 0 to 25 |
| Cc1cccc(COc2ncc(F)c(N)n2)c1 [Compound 188] | 76 to 100 | 76 to 100 | 76 to 100 | 76 to 100 |
| COc1cccc(COc2ncc(F)c(NC(=O)c3ccccc3)n2)c1 [Compound 191] | 76 to 100 | 76 to 100 | 76 to 100 | 76 to 100 |
| CC(=O)OC[C@H]1O[C@@H](Oc2ncc(F)c(N)n2)[C@H](OC(C)=O)[C@@H](OC(C)=O)[C@@H]1OC(C)=O [Compound 192] | 76 to 100 | 76 to 100 | 51 to 75 | 76 to 100 |
| Nc1nc(OCc2ccc(OCc3ccccc3)cc2)ncc1F [Compound 193] | 76 to 100 | 76 to 100 | 76 to 100 | 76 to 100 |
| Nc1nc(OCc2c(F)cc(F)cc2F)ncc1F [Compound 194] | 76 to 100 | 76 to 100 | 76 to 100 | 76 to 100 |
| OCNc1nc(OCc2cccs2)ncc1F [Compound 196] | 76 to 100 | 76 to 100 | 76 to 100 | 76 to 100 |
| CC(C)c1ccc(COc2ncc(F)c(N)n2)cc1 [Compound 197] | 51 to 75 | 76 to 100 | 51 to 75 | 76 to 100 |
| CCOC(=O)COC(=O)Nc1nc(OCc2cccc(F)c2)ncc1F [Compound 199] | 0 to 25 | 76 to 100 | 51 to 75 | 76 to 100 |
| COc1ccc(COc2ncc(F)c(NSc3ccccc3[N+](=O)[O-])n2)cc1F [Compound 200] | 0 to 25 | 26 to 50 | 0 to 25 | 0 to 25 |
| COc1cccc(COc2ncc(F)c(NC(=O)NCc3ccccc3F)n2)c1 [Compound 201] | 0 to 25 | 0 to 25 | 0 to 25 | 0 to 25 |
| Fc1ccc(COc2ncc(F)c(NC3CCCCC3)n2)cc1 [Compound 205] | 0 to 25 | 0 to 25 | 0 to 25 | 51 to 75 |
| Cc1ccc(COc2ncc(F)c(NC(=O)Nc3ccccc3F)n2)cc1 [Compound 208] | 0 to 25 | 0 to 25 | 0 to 25 | 26 to 50 |
| Nc1nc(OCc2ccc(F)c(F)c2)ncc1F [Compound 210] | 76 to 100 | 76 to 100 | 76 to 100 | 76 to 100 |
| Nc1nc(OCc2cccc(I)c2)ncc1F [Compound 212] | 76 to 100 | 76 to 100 | 76 to 100 | 76 to 100 |
| Nc1nc(OCc2cccs2)ncc1F [Compound 213] | 76 to 100 | 76 to 100 | 76 to 100 | 76 to 100 |
| COc1ccc(COc2ncc(F)c(NCO)n2)cc1F [Compound 216] | 76 to 100 | 76 to 100 | 51 to 75 | 76 to 100 |
| Nc1nc(OCC2Cc3ccccc3O2)ncc1F (stereo not shown) [Compound 219] | 51 to 75 | 76 to 100 | 0 to 25 | 51 to 75 |
| O=C(Nc1nc(OCc2ccc(F)cc2)ncc1F)OCc1ccccc1 [Compound 220] | 76 to 100 | 76 to 100 | 76 to 100 | 76 to 100 |

| SMILES | pest or weed control at 25 ppm [1] [%] | pest or weed control at 100 ppm [2] [%] | pest or weed control at 25 ppm [3] [%] | pest or weed control at 100 ppm [4] [%] |
| --- | --- | --- | --- | --- |
| COc1ccccc1Oc1ncc(F)c(N)n1 [Compound 223] | 76 to 100 | 76 to 100 | 76 to 100 | 76 to 100 |
| COc1ccc(Br)c(COc2ncc(F)c(N)n2)c1F [Compound 224] | 26 to 50 | 76 to 100 | 0 to 25 | 26 to 50 |
| CCOC(CC)Nc1nc(OCc2ccc(F)cc2)ncc1F (stereo not shown) [Compound 227] | 76 to 100 | 76 to 100 | 76 to 100 | 76 to 100 |
| COc1ccccc1COc1ncc(F)c(NSc2ccccc2[N+](=O)[O-])n1 [Compound 230] | 76 to 100 | 76 to 100 | 0 to 25 | 0 to 25 |
| O=C(Nc1ccccc1F)Nc1nc(OCc2cccc(F)c2)ncc1F [Compound 231] | 0 to 25 | 0 to 25 | 0 to 25 | 0 to 25 |
| Cc1ccc(COc2ncc(F)c(N)n2)cc1F [Compound 232] | 76 to 100 | 76 to 100 | 76 to 100 | 76 to 100 |
| CN(C)/C=N/c1nc(OC(=O)c2c(Cl)cccc2Cl)ncc1F [Compound 234] | 76 to 100 | 76 to 100 | 76 to 100 | 76 to 100 |
| ON(Cc1ccccc1)c1nc(OCc2ccc(F)cc2)ncc1F [Compound 235] | 76 to 100 | 76 to 100 | 51 to 75 | 76 to 100 |
| CNc1nc(OCc2cccs2)ncc1F [Compound 237] | 0 to 25 | 0 to 25 | 0 to 25 | 0 to 25 |
| CCC(Nc1nc(OCc2ccc(F)cc2)ncc1F)Nc1nc(OCc2ccc(F)cc2)ncc1F [Compound 238] | 0 to 25 | 51 to 75 | 0 to 25 | 26 to 50 |
| COc1ccccc1COc1ncc(F)c(NC(=S)Nc2ccccc2F)n1 [Compound 239] | 76 to 100 | 76 to 100 | 51 to 75 | 76 to 100 |
| Nc1nc(OCCc2ccccc2Cl)ncc1F [Compound 240] | 0 to 25 | 26 to 50 | 0 to 25 | 0 to 25 |
| COc1ccc(COc2ncc(F)c(/N=C/N3CCOCC3)n2)cc1F [Compound 241] | 76 to 100 | 76 to 100 | 76 to 100 | 51 to 75 |
| Cc1ccc(COc2ncc(F)c(NNC3CCCCC3)n2)cc1 [Compound 244] | 0 to 25 | 76 to 100 | 0 to 25 | 76 to 100 |
| Cn1ccc(COc2ncc(F)c(NCO)n2)n1 [Compound 245] | 51 to 75 | 76 to 100 | 51 to 75 | 76 to 100 |
| Cc1cc(Cl)ccc1Oc1ncc(F)c(N)n1 [Compound 246] | 0 to 25 | 0 to 25 |  |  |
| CN(C)/C=N/c1nc(OC(=O)C2CCCCC2)ncc1F [Compound 247] | 76 to 100 | 76 to 100 | 76 to 100 | 76 to 100 |
| COc1ccc(COc2ncc(F)c(NCc3ccccc3F)n2)cc1 [Compound 249] | 26 to 50 | 76 to 100 | 26 to 50 | 51 to 75 |
| CN(C)/C=N/c1nc(Cl)ncc1F [Compound 252] | 26 to 50 | 26 to 50 | 0 to 25 | 0 to 25 |
| Cc1ccc(COc2ncc(F)c(N(C)N)n2)cc1 [Compound 253] | 26 to 50 | 76 to 100 | 51 to 75 | 76 to 100 |
| C=C(C)COc1ncc(F)c(N)n1 [Compound 256] | 0 to 25 | 0 to 25 | 0 to 25 | 26 to 50 |
| CCOCNc1nc(OCc2ccc(F)cc2)ncc1F [Compound 257] | 51 to 75 | 76 to 100 | 51 to 75 | 76 to 100 |
